Reference: ChEMBL document CHEMBL1134752 (Bioorg Med Chem Lett, 2001)

Experiments:
[1] = molecular target: Prostaglandin G/H synthase 1 (Homo sapiens, UniProt P23219); test: In vitro inhibition of Prostaglandin G/H synthase 1 in human whole blood assay; format: tissue-based
[2] = Half-life in human; format: ADME, organism-based; details: in vivo
[3] = molecular target: T1, Prostaglandin G/H synthase 2 (Homo sapiens, UniProt P35354); test: In vitro inhibition of Prostaglandin G/H synthase 2 in human whole blood assay; format: tissue-based
T1 sequence (P35354 whole entry): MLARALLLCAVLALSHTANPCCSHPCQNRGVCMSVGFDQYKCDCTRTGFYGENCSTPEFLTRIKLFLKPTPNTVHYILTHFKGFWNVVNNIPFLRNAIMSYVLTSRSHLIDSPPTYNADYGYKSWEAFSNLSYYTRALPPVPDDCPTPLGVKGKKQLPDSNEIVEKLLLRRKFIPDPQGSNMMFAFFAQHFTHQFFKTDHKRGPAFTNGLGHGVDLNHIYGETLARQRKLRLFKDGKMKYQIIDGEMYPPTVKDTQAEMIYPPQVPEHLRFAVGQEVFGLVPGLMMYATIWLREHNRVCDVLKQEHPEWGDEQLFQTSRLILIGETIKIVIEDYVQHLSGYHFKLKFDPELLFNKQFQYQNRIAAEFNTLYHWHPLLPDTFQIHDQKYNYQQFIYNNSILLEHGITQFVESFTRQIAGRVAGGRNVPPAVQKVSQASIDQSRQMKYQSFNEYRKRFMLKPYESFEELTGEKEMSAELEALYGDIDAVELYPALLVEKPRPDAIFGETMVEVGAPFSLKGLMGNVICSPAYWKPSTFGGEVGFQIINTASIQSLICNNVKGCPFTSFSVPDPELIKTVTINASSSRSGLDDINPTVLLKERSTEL

Chain of Prostaglandin G/H synthase 1 (P23219 whole entry): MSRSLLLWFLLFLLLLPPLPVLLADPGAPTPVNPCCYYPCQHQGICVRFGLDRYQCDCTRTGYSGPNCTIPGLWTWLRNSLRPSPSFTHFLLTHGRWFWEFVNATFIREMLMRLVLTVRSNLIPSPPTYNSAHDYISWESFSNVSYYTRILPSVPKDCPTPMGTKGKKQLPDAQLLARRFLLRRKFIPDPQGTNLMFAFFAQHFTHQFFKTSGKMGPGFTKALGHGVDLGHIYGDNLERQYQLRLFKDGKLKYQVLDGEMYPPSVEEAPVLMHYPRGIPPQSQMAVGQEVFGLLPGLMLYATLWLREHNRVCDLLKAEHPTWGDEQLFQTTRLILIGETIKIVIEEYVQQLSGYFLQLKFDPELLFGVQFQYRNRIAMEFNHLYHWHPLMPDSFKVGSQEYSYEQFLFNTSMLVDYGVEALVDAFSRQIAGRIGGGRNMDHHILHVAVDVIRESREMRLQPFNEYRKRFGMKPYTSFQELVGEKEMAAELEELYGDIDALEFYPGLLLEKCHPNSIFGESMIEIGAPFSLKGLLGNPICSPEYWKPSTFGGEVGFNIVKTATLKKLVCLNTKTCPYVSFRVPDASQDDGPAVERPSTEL

| Structure (SMILES) | IC50 [1] [µM] | half-life [2] [h] | IC50 [3] [µM] |
| --- | --- | --- | --- |
| Cc1ccc(-c2ncc(Cl)cc2-c2ccc(S(C)(=O)=O)cc2)cn1 [ETORICOXIB] | > 100 | – | – |
| CC(C)OC1=C(c2ccc(S(C)(=O)=O)cc2)C(C)(C)OC1=O | – | 64 | – |
| CS(=O)(=O)c1ccc(-c2cc(Cl)cnc2-c2ccc(C(=O)O)nc2)cc1 | > 100 | – | 21 |
| CS(=O)(=O)c1ccc(-c2cc(Cl)cnc2-c2ccc(CO[C@@H]3O[C@@H](C(=O)O)[C@@H](O)[C@H](O)[C@@H]3O)nc2)cc1 | > 100 | – | > 33 |
| CS(=O)(=O)c1ccc(-c2cc(Cl)cnc2-c2ccc(CO)nc2)cc1 | > 100 | – | > 33 |
| Cc1ccc(-c2ncc(Cl)cc2-c2ccc(S(C)(=O)=O)cc2)c[n+]1[O-] | > 100 | – | 18 |
